Test results taken from patent US9089572B2, “Inhibitors of p97” (California Institute of Technology, priority 2008, dated 2015).

Legend:
13 different cell lines = assay: MTT cell growth assay, summary across 13 different cell lines; assay type: cell-based; conditions: vs compound 2, 13 cell lines
Protocol: (§1) To probe further the effect of compound 2 and related compounds 1, 3, 5, 6 and 7, various concentrations of these compounds were added to 13 different cell lines and incubated for 48 or 72 h. An MTT assay was then performed to evaluate cell growth and survival.
Data for the assay with MCF-7 cells and HeLa cells is shown in FIG. 21 and FIG. 22, respectively. […] Thus, compound 2 blocks p97-dependent processes in cells and also blocks the proliferation of cancer cell lines, illustrating its potential utility as an anti-proliferative drug to treat cancer.

HTC116 WT = assay: MTT cell growth assay, HTC116 WT; assay type: cell-based; conditions: 48 or 72 h, read-out: Cell line inhibition of growth GI50 HTC116 WT
Protocol: as §1

RPMI8226 cells = assay: Accumulation of high molecular weight ubiquitin conjugates (anti-ubiquitin immunoblot), RPMI8226 cells; assay type: cell-based; conditions: 1 h at 37° C.
Source text: (§2) To evaluate whether compound 2 can target p97 activity in cells, we sought to determine whether this compound induces accumulation of high molecular weight ubiquitin conjugates, since it is known that RNAi-mediated knockdown of p97 in mammalian cells has this effect (Wojcik, C. et al. J. Cell Sci. (2004) 117, 281-292). As a positive control for this experiment, the proteasome inhibitor MG132 was used. […] The cells were then harvested, lysed, and centrifuged to generate soluble and insoluble fractions. These fractions were then immunoblotted with anti-ubiquitin antibodies to detect accumulation of high molecular weight conjugates. Blots were also probed with anti-PSTAIRE antibodies as a loading control. […] This effect is particularly pronounced in the insoluble fraction.
(§3) To evaluate whether compound 8 can target p97 activity in cells, it was determined whether this compound induces accumulation of high molecular weight ubiquitin conjugates, since it is known that RNAi-mediated knockdown of p97 in mammalian cells has this effect (Wojcik, C. et al. J. Cell Sci. (2004) 117, 281-292). The proteasome inhibitor bortezomib (velcade) was employed as a positive control for this experiment. HeLa (FIG. 25) or RPMI8226 (FIG. 26) cells were treated with Velcade, compound 8, or a combination thereof for 1 h at 37° C. The cells were then harvested and cell lysates were immunoblotted with anti-ubiquitin antibodies to detect accumulation of high molecular weight conjugates. Blots were also probed with anti-PSTAIRE antibodies as a loading control.

293 = assay: MTT cell growth assay, 293; assay type: cell-based; conditions: Homo sapiens, HEK293, 48 or 72 h, read-out: Cell line inhibition of growth GI50 293
Protocol: as §1

HeLa cells = assay: Accumulation of high molecular weight ubiquitin conjugates (anti-ubiquitin immunoblot), HeLa cells; assay type: cell-based; conditions: 1 h at 37° C.
Source text: as §2, §3

DU145 = assay: MTT cell growth assay, DU145; assay type: cell-based; conditions: Homo sapiens, DU-145, 48 or 72 h, read-out: Cell line inhibition of growth GI50 DU145
Protocol: as §1

HeLa = assay: MTT cell growth assay, HeLa; assay type: cell-based; conditions: Homo sapiens, 48 or 72 h, read-out: Cell line inhibition of growth GI50 HeLa
Protocol: as §1

MCF7 = assay: MTT cell growth assay, MCF7; assay type: cell-based; conditions: Homo sapiens, 48 or 72 h, read-out: Cell line inhibition of growth GI50 MCF7
Protocol: as §1

MDAMB-231 = assay: MTT cell growth assay, MDAMB-231; assay type: cell-based; conditions: Homo sapiens, MDA-MB-231, 48 or 72 h, read-out: Cell line inhibition of growth GI50 MDAMB-231
Protocol: as §1

Ub-G76V-GFP/HeLa cells = assay: Degradation of pre-accumulated Ub-G76V-GFP (cycloheximide chase after MG132 washout); assay type: cell-based; conditions: up to 10 μM
Protocol: To evaluate this possibility, an assay was developed to determine the rate of degradation of pre-accumulated Ub-G76V-GFP molecules. […] Cells were then washed with PBS three times remove the MG132. Cells were then refreshed by adding DMEM containing cycloheximide (50 μg/mL; to block production of more Ub-G76V-GFP) and test compounds (0˜10 μM) were added into cells. Eight 96-well plates were prepared and one of the plates was imaged at 25, 50, 70, 100, 110, 125, 145, or 170 min after washing with PBS three times. After washing out MG132, degradation of pre-accumulated Ub-G76V-GFP appears to follow pseudo-first order reaction. Rate constant (K; 1/min) can be determined from the slope of plotting Ln (Fold Accumulation) versus Time (min) (see FIG. 17 and FIG. 18).
Ub-G76V-GFP/HeLa cells were treated with MG132 (2 μM) for 1 h and washed with PBS three times. DMEM containing cycloheximide (50 μg/mL) and compound 8 (0-10 μM) was added into cells. Eight 96-well plates were prepared and one of the plates was imaged at 25, 50, 70, 100, 110, 125, 145, or 170 min after washing with PBS three times.

LNCaP = assay: MTT cell growth assay, LNCaP; assay type: cell-based; conditions: Homo sapiens, 48 or 72 h, read-out: Cell line inhibition of growth GI50 LNCaP
Protocol: as §1

RL = assay: MTT cell growth assay, RL; assay type: cell-based; conditions: Homo sapiens, 48 or 72 h, read-out: Cell line inhibition of growth GI50 RL
Protocol: as §1

Molt4 = assay: MTT cell growth assay, Molt4; assay type: cell-based; conditions: Homo sapiens, MOLT-4, 48 or 72 h, read-out: Cell line inhibition of growth GI50 Molt4
Protocol: as §1

PC3 = assay: MTT cell growth assay, PC3; assay type: cell-based; conditions: Homo sapiens, PC-3, 48 or 72 h, read-out: Cell line inhibition of growth GI50 PC3
Protocol: as §1

RPMI8226 = assay: MTT cell growth assay, RPMI8226; assay type: cell-based; conditions: Homo sapiens, RPMI-8226, 48 or 72 h, read-out: Cell line inhibition of growth GI50 RPMI8226
Protocol: as §1

HCT116 p53−/− = assay: MTT cell growth assay, HCT116 p53−/−; assay type: cell-based; conditions: Homo sapiens, HCT-116, 48 or 72 h, read-out: Cell line inhibition of growth GI50 HCT116 p53−/−
Protocol: as §1

CCRF-CEM = assay: MTT cell growth assay, CCRF-CEM; assay type: cell-based; conditions: Homo sapiens, 48 or 72 h, read-out: Cell line inhibition of growth GI50 CCRF-CEM
Protocol: as §1

wild type murine p97 = wild type murine p97 (Mus musculus, UniProt Q01853); assay: In vitro ATP hydrolysis (malachite green ATPase assay), wild type murine p97; assay type: biochemical; conditions: 200 nM p97, 20 min preincubation at 23° C., malachite green; read-out: In vitro ATP Hydrolysis Activity IC50 WT-mP97
Protocol: (§4) Compounds were tested for their ability to inhibit the ATPase activity of purified wild type murine p97 and T532C-Cdc48, a mutant of yeast Cdc48 in which the residue analogous to cysteine 522, threonine 532, was converted to cysteine.

T532C-Cdc48 = T532C-Cdc48 (Saccharomyces cerevisiae, UniProt P25694, T532C); assay: In vitro ATP hydrolysis (malachite green ATPase assay), T532C-Cdc48; assay type: biochemical, yeast
Protocol: as §4
To determine whether cysteine 522 is necessary for inhibition of p97 by compound 2, a mutant of p97 was constructed in which cysteine 522 was converted to either alanine (C522A-mp97) or threonine (C522T-mp97). The IC50 values of compound 2 were measured the against various enzymes during a 20-minute preincubation (see Table 2). Mutation of cysteine 522 in p97 to either alanine or threonine decreased sensitivity to compound 2 by greater than 100-fold. On the other hand, yeast Cdc48, which normally is quite resistant to compound 2, became nearly 30-fold more sensitive to the compound upon introduction of a cysteine in place of threonine 532.

wild type murine p97, sequence (Q01853 whole entry): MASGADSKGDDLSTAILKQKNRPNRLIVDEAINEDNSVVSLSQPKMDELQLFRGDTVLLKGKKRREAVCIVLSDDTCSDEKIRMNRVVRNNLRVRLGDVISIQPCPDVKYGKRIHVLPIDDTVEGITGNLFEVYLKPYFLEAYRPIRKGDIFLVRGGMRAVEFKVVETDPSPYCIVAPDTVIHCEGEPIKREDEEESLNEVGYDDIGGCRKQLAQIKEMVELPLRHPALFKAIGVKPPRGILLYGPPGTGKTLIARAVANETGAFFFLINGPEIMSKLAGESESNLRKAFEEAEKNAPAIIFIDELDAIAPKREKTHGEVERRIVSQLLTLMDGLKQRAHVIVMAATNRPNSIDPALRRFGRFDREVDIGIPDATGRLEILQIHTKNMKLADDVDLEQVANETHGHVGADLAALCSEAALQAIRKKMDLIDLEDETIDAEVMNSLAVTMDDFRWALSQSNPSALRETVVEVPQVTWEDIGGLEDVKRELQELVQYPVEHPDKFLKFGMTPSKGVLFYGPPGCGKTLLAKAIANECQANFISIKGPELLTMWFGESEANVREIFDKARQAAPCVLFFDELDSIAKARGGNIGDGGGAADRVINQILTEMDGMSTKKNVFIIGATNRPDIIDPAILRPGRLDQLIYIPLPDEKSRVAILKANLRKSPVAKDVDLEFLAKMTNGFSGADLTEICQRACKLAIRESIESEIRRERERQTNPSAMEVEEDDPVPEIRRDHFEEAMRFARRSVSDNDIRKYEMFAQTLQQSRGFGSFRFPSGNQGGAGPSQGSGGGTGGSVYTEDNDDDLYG
T532C-Cdc48, sequence (P25694 whole entry T532C): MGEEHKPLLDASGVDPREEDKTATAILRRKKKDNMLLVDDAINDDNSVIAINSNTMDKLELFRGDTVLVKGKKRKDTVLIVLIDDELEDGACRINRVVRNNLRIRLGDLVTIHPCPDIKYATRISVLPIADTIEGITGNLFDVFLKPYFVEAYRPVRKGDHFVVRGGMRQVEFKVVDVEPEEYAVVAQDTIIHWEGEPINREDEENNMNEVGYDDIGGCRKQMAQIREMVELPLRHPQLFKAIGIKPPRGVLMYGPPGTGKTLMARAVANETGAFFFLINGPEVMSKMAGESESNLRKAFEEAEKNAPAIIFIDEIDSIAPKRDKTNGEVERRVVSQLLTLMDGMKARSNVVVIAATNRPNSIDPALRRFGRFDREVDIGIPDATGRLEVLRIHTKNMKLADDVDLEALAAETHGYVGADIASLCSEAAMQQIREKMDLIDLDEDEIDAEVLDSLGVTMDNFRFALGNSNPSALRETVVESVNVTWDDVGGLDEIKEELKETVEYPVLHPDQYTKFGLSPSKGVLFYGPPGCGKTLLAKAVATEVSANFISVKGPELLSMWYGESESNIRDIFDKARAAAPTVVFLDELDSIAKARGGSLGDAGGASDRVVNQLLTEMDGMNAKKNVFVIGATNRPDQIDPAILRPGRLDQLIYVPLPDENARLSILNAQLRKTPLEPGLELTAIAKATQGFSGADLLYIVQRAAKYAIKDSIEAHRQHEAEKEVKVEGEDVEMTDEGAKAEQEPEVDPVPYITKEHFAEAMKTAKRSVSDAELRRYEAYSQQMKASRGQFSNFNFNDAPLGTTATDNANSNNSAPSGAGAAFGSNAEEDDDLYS

| Structure (SMILES) | GI50 higher than that of compound 2 across the same cell lines (13 different cell lines) | GI50 (HTC116 WT) | accumulation of high molecular weight ubiquitin conjugates, RPMI8226 cells (RPMI8226 cells) | GI50 293 | accumulation of high molecular weight ubiquitin conjugates, HeLa cells (HeLa cells) | GI50 (DU145) | GI50 (HeLa) | GI50 (MCF7) | GI50 (MDAMB-231) | effect on the decay of Ub-G76V-GFP (Ub-G76V-GFP/HeLa cells) | GI50 (LNCaP) | GI50 (RL) | GI50 (Molt4) | GI50 (PC3) | GI50 (RPMI8226) | GI50 (HCT116 p53−/−) | GI50 (CCRF-CEM) | IC50 (wild type murine p97) | IC50 (T532C-Cdc48) |
| --- | --- | --- | --- | --- | --- | --- | --- | --- | --- | --- | --- | --- | --- | --- | --- | --- | --- | --- | --- |
| CC(C)(C)n1nc(-c2ccccc2)c2c(N)ncnc21 [Compound 1] | 3 to 18 fold | 10 ± 2 µM | not | 92 ± 14 µM | not | 18 ± 4 µM | 2 ± 1 µM | 4 ± 2 µM | 19 ± 8 µM | no effect | 38 ± 8 µM | 21 ± 10 µM | 7.4 ± 4.7 µM | 11 ± 1 µM | 1.1 ± 0.7 µM | 12 ± 4 µM | 15 ± 5 µM | > 100 µM | – |
| C=CC(=O)N(C(=O)C=C)c1ncnc2c1c(-c1ccccc1)nn2C(C)(C)C [Compound 3] | – | 5.1 ± 2 µM | – | – | – | 8.2 ± 2.4 µM | 5.3 ± 2.5 µM | 6.6 ± 2.2 µM | 24 ± 10 µM | – | 4.6 ± 1.1 µM | 5 ± 2 µM | 2.7 ± 0.8 µM | 3.3 ± 0.9 µM | 1.2 ± 0.6 µM | 4 ± 0.9 µM | 7.2 ± 4.3 µM | 1.1 ± 0.7 µM | 26 ± 6 µM |
| CC(C)(C)n1nc(-c2ccccc2)c2c(NC(=O)CCl)ncnc21 [Compound 4] | – | 19 ± 6 µM | – | – | – | 40 ± 10 µM | – | – | – | – | 23 ± 4 µM | – | – | 6.3 ± 0.6 µM | – | 20 ± 5 µM | – | 4.5 ± 3.5 µM | 35 ± 8 µM |
| CC(C)(C)n1nc(-c2ccc3ccccc3c2)c2c(N)ncnc21 [Compound 5] | – | 4.3 ± 1.8 µM | – | – | – | 3.5 ± 0.6 µM | 1 ± 0.3 µM | 2.3 ± 0.4 µM | 10 ± 1.8 µM | – | 7.6 ± 1.7 µM | 0.7 ± 0.2 µM | 0.6 ± 0.2 µM | 5.9 ± 0.5 µM | 9.8 ± 1.8 µM | 12 ± 3 µM | 3.9 ± 1.3 µM | > 100 µM | – |
